Assay results: the supplement of paper PMC10307832

How the values were obtained:
Assay in all cases: relative viability (nuclei count vs DMSO), 5 days (fraction); higher = more cells survive
NCI-H1915 = tested on: NCI-H1915
Procedure, shortened: (§1)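 Lung cancer cell lines, seeded in 1536-well plates, were treated the following day by pin tool with a single drug or with five library-drug doses (not always all listed) in √10 steps on top of a fixed anchor-drug dose. Cells were fixed and nuclei stained in one step after 5 days, and nuclei were counted. Relative viability is the nuclei count for treated wells divided by that for vehicle wells, reported as medians of duplicate plates.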

LCLC-97TM1 = tested on: LCLC-97TM1
Procedure, shortened: as §1

CAL-12T = tested on: CAL-12T
Procedure, shortened: as §1

NCI-H441 = tested on: NCI-H441
Procedure, shortened: as §1

SW 1573 = tested on: SW 1573
Procedure, shortened: as §1

NCI-H1793 = tested on: NCI-H1793
Procedure, shortened: as §1

201T = tested on: 201T
Procedure, shortened: as §1

NCI-H838 = tested on: NCI-H838
Procedure, shortened: as §1

NCI-H1355 = tested on: NCI-H1355
Procedure, shortened: as §1

LOU-NH91 = tested on: LOU-NH91
Procedure, shortened: as §1

SK-LU-1 = tested on: SK-LU-1
Procedure, shortened: as §1

HCC-78 = tested on: HCC-78
Procedure, shortened: as §1

NCI-H3122 = tested on: NCI-H3122
Procedure, shortened: as §1

NCI-H650 = tested on: NCI-H650
Procedure, shortened: as §1

NCI-H2126 = tested on: NCI-H2126
Procedure, shortened: as §1

NCI-H1395 = tested on: NCI-H1395
Procedure, shortened: as §1

BEN = tested on: BEN
Procedure, shortened: as §1

NCI-H322M = tested on: NCI-H322M
Procedure, shortened: as §1

NCI-H1651 = tested on: NCI-H1651
Procedure, shortened: as §1

NCI-H2347 = tested on: NCI-H2347
Procedure, shortened: as §1

HOP-62 = tested on: HOP-62
Procedure, shortened: as §1

NCI-H1944 = tested on: NCI-H1944
Procedure, shortened: as §1

Cc1csc(=NC2CCCCC2)n1/N=C/c1ccc(O)c(O)c1O [MIM1] + CC(=O)Nc1cccc(-n2c(=O)n(C3CC3)c(=O)c3c(Nc4ccc(I)cc4F)n(C)c(=O)c(C)c32)c1 [Trametinib] (partner 0.02 µM)
relative viability (NCI-H1915; first compound 0.2 µM): 0.31
relative viability (NCI-H1915; first compound 0.6325 µM): 0.27
relative viability (NCI-H1915; first compound 2 µM): 0.279
relative viability (NCI-H1915; first compound 6.325 µM): 0.314
relative viability (NCI-H1915; first compound 20 µM): 0.357
relative viability (LCLC-97TM1; first compound 0.2 µM): 0.207
relative viability (LCLC-97TM1; first compound 0.6325 µM): 0.218
relative viability (LCLC-97TM1; first compound 2 µM): 0.217
relative viability (LCLC-97TM1; first compound 6.325 µM): 0.196
relative viability (LCLC-97TM1; first compound 20 µM): 0.0682
relative viability (CAL-12T; first compound 0.2 µM): 0.406
relative viability (CAL-12T; first compound 0.6325 µM): 0.378
relative viability (CAL-12T; first compound 2 µM): 0.341
relative viability (CAL-12T; first compound 6.325 µM): 0.316
relative viability (CAL-12T; first compound 20 µM): 0.249
relative viability (NCI-H441; first compound 0.2 µM): 0.558
relative viability (NCI-H441; first compound 0.6325 µM): 0.409
relative viability (NCI-H441; first compound 2 µM): 0.484
relative viability (NCI-H441; first compound 6.325 µM): 0.302
relative viability (NCI-H441; first compound 20 µM): 0.211
relative viability (SW 1573; first compound 0.2 µM): 0.647
relative viability (SW 1573; first compound 0.6325 µM): 0.574
relative viability (SW 1573; first compound 2 µM): 0.553
relative viability (SW 1573; first compound 6.325 µM): 0.361
relative viability (SW 1573; first compound 20 µM): 0.13
relative viability (NCI-H1793; first compound 0.2 µM): 0.397
relative viability (NCI-H1793; first compound 2 µM): 0.409
relative viability (NCI-H1793; first compound 6.325 µM): 0.411
relative viability (NCI-H1793; first compound 20 µM): 0.408
relative viability (201T; first compound 0.2 µM): 0.704
relative viability (201T; first compound 0.6325 µM): 0.701
relative viability (201T; first compound 2 µM): 0.736
relative viability (201T; first compound 6.325 µM): 0.605
relative viability (201T; first compound 20 µM): 0.761
relative viability (NCI-H838; first compound 0.2 µM): 0.463
relative viability (NCI-H838; first compound 0.6325 µM): 0.572
relative viability (NCI-H838; first compound 2 µM): 0.544
relative viability (NCI-H838; first compound 6.325 µM): 0.353
relative viability (NCI-H838; first compound 20 µM): 0.178
relative viability (NCI-H1355; first compound 0.2 µM): 0.419
relative viability (NCI-H1355; first compound 0.6325 µM): 0.436
relative viability (NCI-H1355; first compound 2 µM): 0.457
relative viability (NCI-H1355; first compound 6.325 µM): 0.384
relative viability (NCI-H1355; first compound 20 µM): 0.375
relative viability (LOU-NH91; first compound 0.2 µM): 0.795
relative viability (LOU-NH91; first compound 0.6325 µM): 0.839
relative viability (LOU-NH91; first compound 2 µM): 0.646
relative viability (LOU-NH91; first compound 6.325 µM): 0.7
relative viability (LOU-NH91; first compound 20 µM): 0.349
relative viability (SK-LU-1; first compound 0.2 µM): 0.471
relative viability (SK-LU-1; first compound 0.6325 µM): 0.528
relative viability (SK-LU-1; first compound 2 µM): 0.516
relative viability (SK-LU-1; first compound 6.325 µM): 0.459
relative viability (SK-LU-1; first compound 20 µM): 0.202
relative viability (HCC-78; first compound 0.2 µM): 0.75
relative viability (HCC-78; first compound 2 µM): 0.778
relative viability (HCC-78; first compound 6.325 µM): 0.556
relative viability (HCC-78; first compound 20 µM): 1.15
relative viability (NCI-H3122; first compound 0.2 µM): 0.239
relative viability (NCI-H3122; first compound 0.6325 µM): 0.244
relative viability (NCI-H3122; first compound 2 µM): 0.261
relative viability (NCI-H3122; first compound 6.325 µM): 0.302
relative viability (NCI-H3122; first compound 20 µM): 0.125
relative viability (NCI-H650; first compound 0.2 µM): 1.02
relative viability (NCI-H650; first compound 0.6325 µM): 0.946
relative viability (NCI-H650; first compound 2 µM): 1.07
relative viability (NCI-H650; first compound 6.325 µM): 0.939
relative viability (NCI-H650; first compound 20 µM): 0.647
relative viability (NCI-H2126; first compound 0.2 µM): 0.553
relative viability (NCI-H2126; first compound 0.6325 µM): 0.579
relative viability (NCI-H2126; first compound 2 µM): 0.598
relative viability (NCI-H2126; first compound 6.325 µM): 0.503
relative viability (NCI-H2126; first compound 20 µM): 0.388
relative viability (NCI-H1395; first compound 0.2 µM): 0.976
relative viability (NCI-H1395; first compound 0.6325 µM): 1.04
relative viability (NCI-H1395; first compound 2 µM): 0.937
relative viability (NCI-H1395; first compound 6.325 µM): 0.812
relative viability (NCI-H1395; first compound 20 µM): 0.54
relative viability (BEN; first compound 0.2 µM): 1.22
relative viability (BEN; first compound 0.6325 µM): 1.1
relative viability (BEN; first compound 2 µM): 1.03
relative viability (BEN; first compound 6.325 µM): 1.1
relative viability (BEN; first compound 20 µM): 0.578
relative viability (NCI-H322M; first compound 0.2 µM): 0.508
relative viability (NCI-H322M; first compound 0.6325 µM): 0.596
relative viability (NCI-H322M; first compound 2 µM): 0.456
relative viability (NCI-H322M; first compound 6.325 µM): 0.526
relative viability (NCI-H322M; first compound 20 µM): 0.577
relative viability (NCI-H1651; first compound 0.2 µM): 0.856
relative viability (NCI-H1651; first compound 0.6325 µM): 0.9
relative viability (NCI-H1651; first compound 2 µM): 0.866
relative viability (NCI-H1651; first compound 6.325 µM): 0.728
relative viability (NCI-H1651; first compound 20 µM): 0.843
relative viability (NCI-H2347; first compound 0.2 µM): 0.309
relative viability (NCI-H2347; first compound 0.6325 µM): 0.358
relative viability (NCI-H2347; first compound 2 µM): 0.283
relative viability (NCI-H2347; first compound 6.325 µM): 0.315
relative viability (NCI-H2347; first compound 20 µM): 0.27
relative viability (HOP-62; first compound 0.2 µM): 0.386
relative viability (HOP-62; first compound 0.6325 µM): 0.417
relative viability (HOP-62; first compound 2 µM): 0.379
relative viability (HOP-62; first compound 6.325 µM): 0.344
relative viability (HOP-62; first compound 20 µM): 0.266
relative viability (NCI-H1944; first compound 0.2 µM): 0.386
relative viability (NCI-H1944; first compound 0.6325 µM): 0.462
relative viability (NCI-H1944; first compound 2 µM): 0.307
relative viability (NCI-H1944; first compound 6.325 µM): 0.364
relative viability (NCI-H1944; first compound 20 µM): 0.265
